Results reported in patent US20150175530A1, “ANTIBACTERIAL AGENTS” (priority 2012, published 2015).
Converted amounts (≈) assume the structure as drawn. Read-outs that look alike come from different tables or passages of the source.

Key:
[1] = tested on: bacterial isolates (clinical isolates and ATCC quality control strains); assay: Minimum Inhibitory Concentrations (MICs) by broth microdilution (CLSI susceptibility testing); assay type: cell-based
Procedure: Bacterial isolates were cultivated from −70° C. frozen stocks by overnight passages at 35° C. in ambient air on Mueller-Hinton agar (Beckton Dickinson, Franklin Lakes, N.J.). Clinical isolates tested were obtained from various geographically diverse hospitals in the US and abroad (Focus Diagnostics, Herndon, Va. and JMI, North Liberty, Iowa). Quality control strains were from the American Type Culture Collection (ATCC; Rockville, Md.).
Minimum Inhibitory Concentrations (MICs) were determined by the broth microdilution method in accordance with the Clinical and Laboratory Standards Institute (CLSI) guidelines. In brief, organism suspensions were adjusted to a 0.5 McFarland standard to yield a final inoculum between 3×10^5 and 7×10^5 colony-forming units (CFU)/mL. Drug dilutions and inocula were made in sterile, cation adjusted Mueller-Hinton Broth (Beckton Dickinson). An inoculum volume of 100 μL was added to wells containing 100 μL of broth with 2-fold serial dilutions of drug. All inoculated microdilution trays were incubated in ambient air at 35° C. for 18-24 h. Following incubation, the lowest concentration of the drug that prevented visible growth (OD600 nm<0.05) was recorded as the MIC. Performance of the assay was monitored by the use of laboratory quality-control strains and levofloxacin, a compound with a defined MIC spectrum, in accordance with CLSI guidelines.

[2] = tested on: 3 P. aeruginosa strains (APAE001, APAE002, APAE006); assay: Protein binding: fold change in MIC in the presence of 2% HSA and 0.05% AGP, Geomean of 3 strains; assay type: cell-based, Pseudomonas aeruginosa; settings: MIC in the presence of 2% HSA and 0.05% AGP divided by MIC in the absence; Geomean of 3 P. aeruginosa strains (APAE001, APAE002, APAE006)
Procedure: The effect of human serum albumin (HSA) and α-1-acid glycoprotein (AGP) from human plasma, which are known to nonspecifically bind to certain antibiotics and thereby reduce their activity (Banéres-Roquet et al. 2009 “Use of a Surface Plasmon Resonance Method to Investigate Antibiotic and Plasma Protein Interactions” Antimicrob. Agents and Chemother. 53(4):1528-1531), was assessed against 3 P. aeruginosa strains (APAE001, APAE002, APAE006). APAE001 is Pseudomonas aeruginosa ATCC27853; APAE002 is a wildtype lab strain of Pseudomonas aeruginosa known as PAM1020 or PA01. APAE006 is a strain of […]/PA01 with efflux deletions: delta mexAB-oprM::CM delta CD-oprJ::Gm delta mexEF-oprN::omega Hg. Lomovskaya, 0 et al. 1999. Use of a Genetic Approach To Evaluate the Consequences of Inhibition of Efflux Pumps in P aeruginosa. Antimicrob. Agents Chemother. 43: 1340-1346.
The standard procedure described in Susceptibility Testing was utilized with one adjustment, specifically 2% HSA and 0.05% AGP were added to the cation adjusted Mueller-Hinton Broth. The MIC for each strain of interest was then assessed in the presence and absence of HSA/AGP. Following MIC determination, the fold change in MIC was determined for each individual strain by dividing the MIC in the presence of HSA/AGP by the MIC in the absence of HSA/AGP. The protein binding Geomean was then calculated using these 3 values.

[3] = APAE1096 is a clinical isolate, broth microdilution, read-out: Minimum Inhibitory Concentrations (MICs) APAE1096
[4] = Pseudomonas aeruginosa, APAE002 is a wildtype lab strain of Pseudomonas aeruginosa known as PAM1020 or PA01, broth microdilution, read-out: Minimum Inhibitory Concentrations (MICs) APAE002
[5] = Pseudomonas aeruginosa, ATCC27853, APAE001 is Pseudomonas aeruginosa ATCC27853, broth microdilution, read-out: Minimum Inhibitory Concentrations (MICs) APAE001

Row | Compound | MIC [1, 3] [mg/L] | MIC [1, 4] [mg/L] | MIC [1, 5] [mg/L] | Protein Binding PB (Geomean of fold change in MIC) [2] | MIC ([1]; Pseudomonas aeruginosa, ATCC27853, read-out: Minimum Inhibitory Concentrations (MICs) APAE001) [mg/L] | MIC ([1]; Pseudomonas aeruginosa, read-out: Minimum Inhibitory Concentrations (MICs) APAE002) [mg/L] | MIC ([1]; read-out: Minimum Inhibitory Concentrations (MICs) APAE1096) [mg/L]
1 | CC(C)(NCc1c[nH]cn1)[C@H](NC(=O)c1ccc(C#CC#CCCO)cc1)C(=O)NO [Compound 13, (S)—N-(3-((1H-imidazol-4-yl)methylamino)-1-(hydroxyamino)-3-methyl-1-oxobutan-2-yl)-4-(6-hydroxyhexa-1,3-diynyl)benzamide] | 1 to 8 (≈ 2.36 to 18.9 µM) | 1 to 8 (≈ 2.36 to 18.9 µM) | < 1 | 1.4 | – | – | –
2 | C[C@H](O)C#CC#Cc1ccc(C(=O)N[C@H](C(=O)NO)C(C)(C)N)cc1 [Compound 14, N—((S)-3-amino-1-(hydroxyamino)-3-methyl-1-oxobutan-2-yl)-4-((S)-5-hydroxyhexa-1,3-diynyl)benzamide] | 1 to 8 (≈ 2.91 to 23.3 µM) | < 1 | < 1 | 3.4 | – | – | –
3 | C[C@@H](O)C#CC#Cc1ccc(C(=O)N[C@H](C(=O)NO)C(C)(C)N)cc1 [Compound 15, N—((S)-3-amino-1-(hydroxyamino)-3-methyl-1-oxobutan-2-yl)-4-((R)-5-hydroxyhexa-1,3-diynyl)benzamide] | < 1 | < 1 | < 1 | 2.3 | – | – | –
4 | CNC(C)(C)[C@H](NC(=O)c1ccc(C#CC#C[C@H](C)O)cc1)C(=O)NO [Compound 16, N—((S)-1-(hydroxyamino)-3-methyl-3-(methylamino)-1-oxobutan-2-yl)-4-((S)-5-hydroxyhexa-1,3-diynyl)benzamide] | 1 to 8 (≈ 2.8 to 22.4 µM) | < 1 | < 1 | 3.6 | – | – | –
5 | CC(C)(N)[C@H](NC(=O)c1ccc(C#CC#CC(O)CO)cc1)C(=O)NO (stereo partly drawn) [Compound 17, N—((S)-3-amino-1-(hydroxyamino)-3-methyl-1-oxobutan-2-yl)-4-(5,6-dihydroxyhexa-1,3-diynyl)benzamide] | – | – | – | 1.5 | 1 to 8 (≈ 2.78 to 22.3 µM) | 1 to 8 (≈ 2.78 to 22.3 µM) | 8 to 16 (≈ 22.3 to 44.5 µM)
6 | CC(C)(N)[C@H](NC(=O)c1ccc(C#CC#CC(CO)CO)cc1)C(=O)NO [Compound 18, (S)—N-(3-amino-1-(hydroxyamino)-3-methyl-1-oxobutan-2-yl)-4-(6-hydroxy-5-(hydroxymethyl)hexa-1,3-diynyl)benzamide] | 8 to 16 (≈ 21.4 to 42.8 µM) | 1 to 8 (≈ 2.68 to 21.4 µM) | 1 to 8 (≈ 2.68 to 21.4 µM) | 1.6 | – | – | –
7 | CC(C)(N)[C@H](NC(=O)c1ccc(C#CC#CC(O)(CO)CCl)cc1)C(=O)NO (stereo partly drawn) [Compound 19, N—((S)-3-amino-1-(hydroxyamino)-3-methyl-1-oxobutan-2-yl)-4-(6-chloro-5-hydroxy-5-(hydroxymethyl)hexa-1,3-diynyl)benzamide] | 1 to 8 (≈ 2.45 to 19.6 µM) | 1 to 8 (≈ 2.45 to 19.6 µM) | < 1 | 1.0 | – | – | –
8 | CC(C)(N)[C@H](NC(=O)c1ccc(C#CC#CCC(O)CO)cc1)C(=O)NO (stereo partly drawn) [Compound 21, N—((S)-3-amino-1-(hydroxyamino)-3-methyl-1-oxobutan-2-yl)-4-(6,7-dihydroxyhepta-1,3-diynyl)benzamide] | 1 to 8 (≈ 2.68 to 21.4 µM) | 1 to 8 (≈ 2.68 to 21.4 µM) | 1 to 8 (≈ 2.68 to 21.4 µM) | 1.9 | – | – | –
9 | CNC(C)(C)[C@H](NC(=O)c1ccc(C#CC#CCC(O)CO)cc1)C(=O)NO (stereo partly drawn) [Compound 22, 4-(6,7-dihydroxyhepta-1,3-diynyl)-N—((S)-1-(hydroxyamino)-3-methyl-3-(methylamino)-1-oxobutan-2-yl)benzamide] | 1 to 8 (≈ 2.58 to 20.6 µM) | < 1 | < 1 | 1.6 | – | – | –
10 | CC(C)(N)[C@H](NC(=O)c1ccc(C#CC#C[C@@H]2[C@@H](CO)[C@H]2CO)cc1)C(=O)NO [Compound 23A, N—((S)-3-amino-1-(hydroxyamino)-3-methyl-1-oxobutan-2-yl)-4-(((1S,2R,3S)-2,3-bis(hydroxymethyl)cyclopropyl)buta-1,3-diynyl)benzamide] | 8 to 16 (≈ 20 to 40.1 µM) | 1 to 8 (≈ 2.5 to 20 µM) | 1 to 8 (≈ 2.5 to 20 µM) | 2.3 | – | – | –
11 | CC(C)(N)[C@H](NC(=O)c1ccc(C#CC#C[C@H]2[C@@H](CO)[C@H]2CO)cc1)C(=O)NO [Compound 23B, N—((S)-3-amino-1-(hydroxyamino)-3-methyl-1-oxobutan-2-yl)-4-(((1R,2R,3S)-2,3-bis(hydroxymethyl)cyclopropyl)buta-1,3-diynyl)benzamide] | 8 to 16 (≈ 20 to 40.1 µM) | 1 to 8 (≈ 2.5 to 20 µM) | 1 to 8 (≈ 2.5 to 20 µM) | 2.0 | – | – | –
12 | CC(C)(N)[C@H](NC(=O)c1ccc(C#CC#C[C@H]2CC2(CO)CO)cc1)C(=O)NO [Compound 24, N—((S)-3-amino-1-(hydroxyamino)-3-methyl-1-oxobutan-2-yl)-4-(((R)-2,2-bis(hydroxymethyl)cyclopropyl)buta-1,3-diynyl)benzamide] | 1 to 8 (≈ 2.5 to 20 µM) | 1 to 8 (≈ 2.5 to 20 µM) | 1 to 8 (≈ 2.5 to 20 µM) | 2.5 | – | – | –
13 | CC(C)(N)[C@H](NC(=O)c1ccc(C#CC#CC(O)C2CC2CO)cc1)C(=O)NO (stereo partly drawn) [Compound 26, N—((S)-3-amino-1-(hydroxyamino)-3-methyl-1-oxobutan-2-yl)-4-(5-hydroxy-5-(2-(hydroxymethyl)cyclopropyl)penta-1,3-diynyl)benzamide] | 1 to 8 (≈ 2.5 to 20 µM) | < 1 | < 1 | 6.4 | – | – | –
14 | CC(C)(N)[C@H](NC(=O)c1ccc(C#CC#C[C@]2(O)C[C@@H](CO)C2)cc1)C(=O)NO [Compound 27, N—((S)-3-amino-1-(hydroxyamino)-3-methyl-1-oxobutan-2-yl)-4-(((1S,3R)-1-hydroxy-3-(hydroxymethyl)cyclobutyl)buta-1,3-diynyl)benzamide] | 1 to 8 (≈ 2.5 to 20 µM) | < 1 | < 1 | 1.8 | – | – | –
15 | CC(C)(N)[C@H](NC(=O)c1ccc(C#CC#CC[C@]2(O)C[C@@H](CO)C2)cc1)C(=O)NO [Compound 28, N—((S)-3-amino-1-(hydroxyamino)-3-methyl-1-oxobutan-2-yl)-4-(5-((1S,3S)-1-hydroxy-3-(hydroxymethyl)cyclobutyl)penta-1,3-diyn-1-yl)benzamide] | > 16 | 1 to 8 (≈ 2.42 to 19.3 µM) | 1 to 8 (≈ 2.42 to 19.3 µM) | 1.3 | – | – | –
16 | CC(C)(N)[C@H](NC(=O)c1ccc(C#CC#C[C@H]2C[C@@](O)(CO)C2)cc1)C(=O)NO [Compound 29, N—((S)-3-amino-1-(hydroxyamino)-3-methyl-1-oxobutan-2-yl)-4-(((1R,3S)-3-hydroxy-3-(hydroxymethyl)cyclobutyl)buta-1,3-diynyl)benzamide] | 1 to 8 (≈ 2.5 to 20 µM) | < 1 | < 1 | 2.9 | – | – | –
17 | CC(C)(N)[C@H](NC(=O)c1ccc(C#CC#C[C@@H]2C[C@@H](O)[C@@H](O)C2)cc1)C(=O)NO [Compound 32, N—((S)-3-amino-1-(hydroxyamino)-3-methyl-1-oxobutan-2-yl)-4-(((1S,3R,4S)-3,4-dihydroxycyclopentyl)buta-1,3-diynyl)benzamide] | 1 to 8 (≈ 2.5 to 20 µM) | < 1 | < 1 | 5.5 | – | – | –
18 | CC(C)(N)[C@H](NC(=O)c1ccc(C#CC#C[C@H]2CC[C@@](O)(CO)CC2)cc1)C(=O)NO [Compound 33A, N—((S)-3-amino-1-(hydroxyamino)-3-methyl-1-oxobutan-2-yl)-4-(((1S,4R)-4-hydroxy-4-(hydroxymethyl)cyclohexyl)buta-1,3-diynyl)benzamide] | 8 to 16 (≈ 18.7 to 37.4 µM) | < 1 | 1 to 8 (≈ 2.34 to 18.7 µM) | 2.6 | – | – | –
